{
  "source": "patent US8470870B2",
  "about": "“Solid forms of an anti-HIV phosphoindole compound” (Idenix Pharmaceuticals, Inc., priority 2008, dated 2013)",
  "key": {"[1]": {"experiment": "Solubility in water (preliminary, in words)", "format": "physicochemical", "method": "(§1) Milligram size quantities of each sample were placed into a vial. Solvent was added and the vials were vortexed for a few minutes, followed by visual observation for remaining solids. The solvent was incrementally added until the solids were dissolved, or a maximum volume of solvent was added and the experiment was terminated. Parallel to that, a suspension is made and filtered, the solids was examined by XRD to determine if a phase transformation occurs. Solubility experiments were performed to determine the solubility of the different polymorphic forms. […] Solubility data were collected on polymorphs I, VIII, and IX. Two of the forms were anhydrous and one was hydrated."}, "[2]": {"experiment": "Non-competitive slurry experiments in neat solvents", "format": "physicochemical", "method": "Noncompetitive slurry experiments were performed. These experiments rely on solubility differences of different polymorphic forms (if the compound exists in different polymorphic forms). […] Essentially, when a solid is dissolved in a (slurry) solvent, a saturated solution eventually results. The solution is saturated with respect to the polymorphic form dissolved. […] In addition, noncompetitive slurry experiments are often useful in identifying solvents that form solvates with the compound. […] The solids were mechanically filtered and analyzed by XRD to determine the resulting form. To avoid possible desolvation or physical change after isolation, the samples were not subjected to drying before X-ray analysis."}, "[3]": {"experiment": "Apparent kinetic solubility in 2-butanol of different crystalline forms", "format": "physicochemical", "settings": "dry 2-butanol; for Apparent Kinetic Solubility: 25° C.; for relative solubility among Forms I, VIII and IX: ambient temperature", "method": "as §1, with “hydrated. […] Excess solids were placed in a test tube, solvent was then added in the tube, vortexed, and examined visually to determine if all the solids had dissolved. Attempts were made to prepare saturated or nearly saturated solutions of each polymorphic form by exposing excess solids of each polymorph to dry 2-butanol.” for “hydrated.”"}, "[4]": {"experiment": "Form I/Form VIII competitive slurry in water-methanol mixtures", "format": "physicochemical", "method": "Additional competitive slurry experiments were performed by mixing excess amounts of polymorphic forms in a solvent system and agitating the mixture isothermally. The competitive slurry experiments were used in attempts to identify the critical water activity levels for the interconversion of Form I (anhydrate target form) and Form VIII (monohydrate form). This was used to identify the water content range that can be used during processing to successfully isolate Form I in a reproducible manner. In each competitive slurry experiment, an excess of Form I and Form VIII of known weight was added to a water-methanol mixture. The suspension was slurred at ambient temperature (22° C.) or 45° C. continuously for up to 12 days in order to obtain thermodynamic equilibrium. Excess solids were collected at different slurry times by centrifugation, and then characterized by XRD. To avoid possible desolvation or physical change after isolation, the samples were not subjected to drying before X-ray analysis."}, "[5]": {"experiment": "Solubility in recrystallization solvents (Panel 1)", "format": "physicochemical", "settings": "organic solvent or mixture, thermodynamic from solid, saturation temp. 25 °C", "method": "Milligram size quantities of each sample were placed into a vial. Solvent was added and the vials were vortexed for a few minutes, followed by visual observation for remaining solids. The solvent was incrementally added until the solids were dissolved, or a maximum volume of solvent was added and the experiment was terminated. Parallel to that, a suspension is made and filtered, the solids was examined by XRD to determine if a phase transformation occurs. Saturated solutions were prepared by agitating excess test material in contact with the various solvent systems at the saturation temperature. The mother liquor was separated from the residual solids by filtration. The mother liquor was then heated above the saturation temperature (overheated) to dissolve any remaining solids. The temperature of the solutions was then adjusted to the growth temperature and a controlled nitrogen shear flow was introduced to begin solvent evaporation."}, "[6]": {"experiment": "Hydration experiment at 95% RH", "format": "physicochemical", "settings": "18 days", "method": "Hydration experiments were performed on (2-carbamoyl-5-chloro-1H-indol-3-yl)-[3-((E)-2-cyano-vinyl)-5-methyl-phenyl]-(R)-phosphinic acid methyl ester Form III sample. A known weight of sample was exposed to a 95% RH environment using a saturated solution of […]."}, "Annealing experiment": {"experiment": "Annealing experiment", "format": "physicochemical", "settings": "14 days at 46° C.", "method": "In addition to the solvent recrystallization experiments and slurry experiments, annealing experiments were performed. These experiments entailed looking for structural changes as a function of temperature. This was accomplished by using variable-temperature XRD, and variable temperature ovens, and DSC experiments."}, "[7]": {"system": "several serine proteases like S. griseus proteases A and B, α-chymotrypsin, chymase, and subtilisin", "settings": "cited from earlier work"}, "[8]": {"experiment": "Competitive slurry experiments", "format": "physicochemical", "method": "Competitive slurry experiments were performed by mixing excess amounts of the polymorphic forms together in different solvents and agitating isothermally. These types of slurry experiments were used in attempts to determine which phase is more thermodynamically stable under the conditions used. Slurry experiments were generally used to examine the energy relationship between Form I and Form IX, and to examine how these two forms may interconvert with the monohydrate (Form VIII)."}},
  "data": [
    {"molecule": "CO[P@](=O)(c1cc(C)cc(/C=C/C#N)c1)c1c(C(N)=O)[nH]c2ccc(Cl)cc12", "note": "[Form I, (2-carbamoyl-5-chloro-1H-indol-3-yl)-[3-((E)-2-cyano-vinyl)-5-methyl-phenyl]-(R)-phosphinic acid methyl ester]", "values": [
      {"measurement": "solubility in water", "setting": "[1]", "result": "practically insoluble"},
      {"measurement": "XRD pattern after slurry in water", "setting": "[2]; water, ambient temperature and 50° C., up to 6 days", "result": "did not show changes in XRD pattern"},
      {"measurement": "Apparent Kinetic Solubility", "setting": "[3]; listed as I", "result": 1810, "unit": "µg/mL"},
      {"measurement": "relative solubility among Forms I, VIII and IX", "setting": "[3]", "result": "highest solubility"},
      {"measurement": "water content level needed to stabilize Form I (anhydrate)", "setting": "[4]", "result": "≤ 24", "unit": "wt %"}
    ]},
    {"molecule": "CO[P@](=O)(c1cc(C)cc(/C=C/C#N)c1)c1c(C(N)=O)[nH]c2ccc(Cl)cc12", "note": "[compound of Formula I, (2-carbamoyl-5-chloro-1H-indol-3-yl)-[3-((E)-2-cyano-vinyl)-5-methyl-phenyl]-(R)-phosphinic acid methyl ester]", "values": [
      {"measurement": "solubility", "setting": "[5]; 1-propanol", "result": "~2670", "unit": "µg/mL"},
      {"measurement": "solubility", "setting": "[5]; 2-butanol", "result": "< 2670", "unit": "µg/mL"},
      {"measurement": "solubility", "setting": "[5]; 2-propanol", "result": "< 2670", "unit": "µg/mL"},
      {"measurement": "solubility", "setting": "[5]; ethanol", "result": 3640, "unit": "µg/mL"},
      {"measurement": "solubility", "setting": "[5]; methanol", "result": 10000, "unit": "µg/mL"},
      {"measurement": "solubility", "setting": "[5]; nitromethane", "result": 5710, "unit": "µg/mL"}
    ]},
    {"molecule": "CO[P@](=O)(c1cc(C)cc(/C=C/C#N)c1)c1c(C(N)=O)[nH]c2ccc(Cl)cc12", "note": "[Form III]", "values": [
      {"measurement": "XRD pattern after exposure to humidity", "setting": "[6]", "result": "no changes in XRD pattern"},
      {"measurement": "XRD pattern after annealing", "setting": "Annealing experiment", "result": "no change in the XRD pattern"},
      {"measurement": "form after slurry (ripening) in methanol", "setting": "[2]; neat methanol, about 1 day, ambient temperature", "result": "converted to Form I"},
      {"measurement": "form after non-competitive slurry in water", "setting": "[2]; water, 3 days", "result": "resulted in Form VIII"}
    ]},
    {"molecule": "Eglin c", "values": [
      {"measurement": "potency of inhibition", "setting": "[7]", "result": "nanomolar potency inhibition"}
    ]},
    {"molecule": "COP(=O)(c1cc(C)cc(/C=C/C#N)c1)c1c(C(N)=O)[nH]c2ccc(Cl)cc12", "note": "(stereo not shown) [Form IX, (2-carbamoyl-5-chloro-1H-indol-3-yl)-[3-((E)-2-cyano-vinyl)-5-methyl-phenyl]phosphinic acid methyl ester]", "values": [
      {"measurement": "solubility kinetic", "setting": "[3]; 25 °C, organic solvent or mixture, thermodynamic from solid", "result": 160, "unit": "µg/mL"},
      {"measurement": "relative solubility among Forms I, VIII and IX", "setting": "[3]", "result": "lowest solubility"},
      {"measurement": "thermodynamic stability among forms", "setting": "[8]; ambient temperature and pressure", "result": "most stable form"},
      {"measurement": "form after slurry in water", "setting": "[8]; water, several days", "result": "remained unchanged"}
    ]},
    {"molecule": "CO[P@](=O)(c1cc(C)cc(/C=C/C#N)c1)c1c(C(N)=O)[nH]c2ccc(Cl)cc12", "note": "[Form VIII, (2-carbamoyl-5-chloro-1H-indol-3-yl)-[3-((E)-2-cyano-vinyl)-5-methyl-phenyl]-(R)-phosphinic acid methyl ester]", "values": [
      {"measurement": "Apparent Kinetic Solubility", "setting": "[3]; listed as VIII", "result": 310, "unit": "µg/mL"},
      {"measurement": "critical water activity level for Form I/Form VIII interconversion", "setting": "[8]; methanol/water bridging experiments", "result": "40-60 vol % water"}
    ]}
  ]
}
